# Assay results: article PMC3602187, “From Design to Screening: A New Antimicrobial Peptide Discovery Pipeline” (PLoS ONE, 2013)
# Tested on: Listeria innocua 33090
# Assay: colony overlay assay of peptide-secreting E. coli clones (library screening and re-test)
# Format: cell-based
# Design: key: higher activity group (H); equal activity group (E); lower activity group (L)
# Conditions: library screening; selected colonies pooled by zone size; peptides identified by 454 sequencing, full-length sequences with minimum 20 reads
# Description: For the in vivo production of AMPs, we have employed an E. coli expression system that relies on periplasmic-expression of recombinant peptides in a host cell that lacks the lpo membrane protein, thus releasing the peptides present in the periplasmic space outside the cells. When the producer cells are grown into colonies on a solid substrate, it leads to accumulation of the recombinant peptides around the colony and allows for easy library screening. The screening assay used in this study was a modified version of the standard agar diffusion method as previously described. Library-transformed E. coli colonies are overlaid with a tester strain and incubated overnight to allow for peptide expression and tester strain growth. Next day, the plates are inspected for the formation of clear growth inhibition zones around E. coli colonies, which is an indication of active AMP production by the host colony.
# For the construction of Pln-423 mutant library in E. coli, the expression system that consists of a periplasmic-leaky E. coli strain JE5505 and the expression plasmid pFLAG-CTS was employed for direct screening of peptide activities. It should be noted here that this plasmid contains ompA secretion signal sequence and cleavage of this sequence results in a serine residue at the N-terminal of all mature peptides. A total of 1.0×10^5 colonies, approximately 8-fold coverage of the library, were screened against Listeria innocua 33090 in five separate screening experiments. L. innocua was previously deemed as a suitable indicator for pathogenic L. monocytogenes displaying similar bacteriocin sensitivity, therefore it was used as a surrogate strain throughout this study. The selection process involved two criteria; 1) the size of the each inhibition zone was compared to that of wild-type Pln-423 as a correlation to anti-listerial activity level, 2) when several colonies formed inhibition zones that are very similar in size and character, only a few from each group were selected. The colonies were pooled into three groups based on their activities, giving 43 clones in a higher activity group (H), 81 clones in an equal activity group (E), and 241 clones in a lower activity group (L). Their plasmids were extracted from each activity group and analyzed by both Sanger and 454 high-throughput sequencing to identify peptide sequences.
# These clones were also re-tested by colony overlay assay to compare their activities to wild-type Pln-423 based on the size of the inhibition zone around each clone (Figure 2-A). Based on this assay, all ten plantaricin mutants formed larger inhibition zones (10.3±0.5 to 11.4±0.3 mm zone diameter) compared to wild-type Pln-423 (6.2±0.2 mm) against L. innocua 33090. Out of those ten, three clones have a single mutation and […] clones have two mutations and the remaining single clone has three mutations. […] Positions like Ser23, Ser27, His28, and Lys36 were commonly mutated with similar amino acids indicating their potential role on higher peptide activity.
# The screening method used in this study was a modified version of the standard colony overlay method as previously described. All the chemicals and growth media supplements were obtained from either Sigma-Aldrich or Fisher Scientific unless otherwise stated. Transformed E. coli JE5505 cells were diluted to 3000–5000 cfu (determined empirically prior to screening by plating serial dilutions of E. coli suspensions of a known absorbance and counting the colonies after incubation) in 25 ml LB soft agar (0.8%, 45°C) per screening plate and poured into 150 mm petri dishes. Once the media was solidified, they were overlaid with 10 ml LB soft agar (45°C) and incubated at 37°C for 24 h for host-colony formation. Next day, these plates were re-overlaid with 10 ml TSB soft agar containing 1 mM IPTG and the indicator strain Listeria innocua ATCC 33090 (diluted to OD600 = 0.03). […]
row,Substance,activity group by size of inhibition zone compared to wild-type Pln-423
1,KYYGNGVTCGKHSCSVNWGQAFSCFVSRLANFGHGKC* [Pep-2_6556],L
2,KYYGNGVTCGKHSCSVNWGQAFSCGVSHLANFGHGKC* [GROUP E-UM-7],E
3,KYYGNGVTCGKHSCSVNWGQAFSCGVSHLANMGHGKC* [Pep-2_9473],H
4,KYYGNGVTCGKHSCSVNWGQAFSCHVDHLANFGHGKC* [Pep-2_4616],E
5,KYYGNGVTCGKHSCSVNWGQAFSCHVSHLANFGHGKC* [Pep-1_43],L
6,KYYGNGVTCGKHSCSVNWGQAFSCHVSTLANFGHGKC* [Pep-2_4623],L
7,KYYGNGVTCGKHSCSVNWGQAFSCIVENLANFGHGKC* [GROUP L-UM-26],L
8,KYYGNGVTCGKHSCSVNWGQAFSCLVSNLANFGHGKC* [Pep-2_6772],L
9,KYYGNGVTCGKHSCSVNWGQAFSCMVSHLANGGHGKC* [Pep-2_9580],L
10,KYYGNGVTCGKHSCSVNWGQAFSCNVSHLANFGHGKC* [Pep-1_45],L
11,KYYGNGVTCGKHSCSVNWGQAFSCNVSHLANFGHGVC* [Pep-2_4888],L and H
12,KYYGNGVTCGKHSCSVNWGQAFSCRVEHLANFGHGKC* [Pep-2_6013],L
13,KYYGNGVTCGKHSCSVNWGQAFSCRVSHLANFGHGKC* [GROUP L-UM-13],L
14,KYYGNGVTCGKHSCSVNWGQAFSCSASHLANFGHGKC* [Pep-1_53],L
15,KYYGNGVTCGKHSCSVNWGQAFSCSFSHLANFGHGKC* [Pep-1_52],L
16,KYYGNGVTCGKHSCSVNWGQAFSCSIHHLANFGHGKC* [Pep-2_5914],L
17,KYYGNGVTCGKHSCSVNWGQAFSCSMSHLANFGHGKC* [GROUP L-UM-5],L
18,KYYGNGVTCGKHSCSVNWGQAFSCSMSRLANFGHGKC* [Pep-2_6562],L
19,KYYGNGVTCGKHSCSVNWGQAFSCSTSHLANFGHGKC* [GROUP E-UM-4],E
20,KYYGNGVTCGKHSCSVNWGQAFSCSVAELANFGHGKC* [Pep-2_6350],H
21,KYYGNGVTCGKHSCSVNWGQAFSCSVAHFANLGHGKC* [GROUP L-UM-30],L
22,KYYGNGVTCGKHSCSVNWGQAFSCSVAHLANFGHGKC* [Pep-1_59],L
23,KYYGNGVTCGKHSCSVNWGQAFSCSVCHMANFGHGKC* [Pep-2_7542],L
24,KYYGNGVTCGKHSCSVNWGQAFSCSVDHLANFGHGHC* [Pep-2_11750],H
25,KYYGNGVTCGKHSCSVNWGQAFSCSVDHLANFGHGKC* [GROUP H-UM-2],H
26,KYYGNGVTCGKHSCSVNWGQAFSCSVEHLANFGHAKC* [Pep-2_6071],E
27,KYYGNGVTCGKHSCSVNWGQAFSCSVEHLANFGHGGC* [Pep-2_6077],E and H
28,KYYGNGVTCGKHSCSVNWGQAFSCSVEHLANFGHGHC* [Pep-2_6073],E
